The values that follow come from PMC11995724, “Antibiotic target discovery by integrated phenotypic and activity-based profiling of electrophilic fragments” (Cell chemical biology, 2025).

Data set [1] deals with T1, Staphylococcus aureus SAD30.
T1 construct: SAD30
Description: microbe, parasite or virus in culture. The arrangement: species or system bacteria in LB, TSB or NB; broth microdilution MIC, OD600, lowest concentration with no growth.
Description: The minimum inhibitory concentrations (MICs) of compounds were measured using the broth microdilution method.[10] One stab using 10 µL tip from bacteria glycerol stock was inoculated into 5 mL of LB supplemented with selection antibiotics (Kanamycin for Keio collections and chloramphenicol for ASKA collections), and the culture was incubated at 37°C with shaking overnight. The overnight culture was diluted 1:10000 (~5 × 10^5 CFU/mL) and then dispensed in to a 96-well plate containing serial dilutions of indicated compounds in DMSO. The plate was incubated at 37°C for 16–20 h with shaking at 80 rpm and the OD600 was measured using Cytation 5 plate reader (BioTek). MIC was determined as the lowest concentration for which no bacterial growth was observed. LB was used as the growth media for all the bacteria strains unless otherwise mentioned. For S. aureus and A. baumannii strains, tryptic soy broth (TSB, BD, DF0370-17-3) was used as the growth media instead of LB. For P. aeruginosa and K. pneumoniae strains, nutrient broth (NB, RPI, N15100) was used as growth media. All MIC measurements were performed in at least biological duplicates.

Another data set is described as follows: in vitro. Conditions: human, hek293t cells.
The target of the next data set is T2, Sf_FabH (Shigella flexneri, UniProt Q83RS8).
T2 construct: gene fabH; recombinant, N-terminal His-tag, pET28a(+), E. coli BL21(DE3), Ni-NTA and Superdex 75
T2 sequence (Q83RS8 1-317): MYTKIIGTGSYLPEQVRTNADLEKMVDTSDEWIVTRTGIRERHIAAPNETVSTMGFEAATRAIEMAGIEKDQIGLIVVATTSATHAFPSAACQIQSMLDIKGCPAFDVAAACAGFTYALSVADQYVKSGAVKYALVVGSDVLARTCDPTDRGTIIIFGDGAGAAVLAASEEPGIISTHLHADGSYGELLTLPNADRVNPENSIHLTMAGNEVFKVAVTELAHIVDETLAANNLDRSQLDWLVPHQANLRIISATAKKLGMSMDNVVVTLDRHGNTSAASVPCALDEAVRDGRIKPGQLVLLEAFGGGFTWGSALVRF
Description: in-gel fluorescence, competition with 5-TMRIA labelling. The data set is classed as binding. Conditions: covalent; 1.5 uM protein in PBS, 1 h, 22 °C.

The next data set has as its target T3, Sf_PdxY (Shigella flexneri, UniProt Q83KY1).
T3 construct: gene pdxY; recombinant, N-terminal His-tag, pET28a(+), E. coli BL21(DE3), Ni-NTA and Superdex 75
T3 sequence (Q83KY1 1-287): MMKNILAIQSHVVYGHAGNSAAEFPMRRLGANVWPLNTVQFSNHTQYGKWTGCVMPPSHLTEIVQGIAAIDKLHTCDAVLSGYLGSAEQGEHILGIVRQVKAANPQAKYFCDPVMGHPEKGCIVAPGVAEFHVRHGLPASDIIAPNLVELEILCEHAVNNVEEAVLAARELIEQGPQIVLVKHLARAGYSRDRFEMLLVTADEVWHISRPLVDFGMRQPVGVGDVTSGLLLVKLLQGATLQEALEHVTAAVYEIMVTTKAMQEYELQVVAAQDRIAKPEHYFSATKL
The description is as above. The data set is classed as binding. Conditions: covalent; 1.5 uM protein in PBS, 1 h, 22 °C.

A further data set has as its target T4, S. aureus FabH (Staphylococcus aureus, UniProt Q6GAU3).
T4 construct: recombinant, N-terminal His-tag, pET28a(+), E. coli BL21(DE3)
T4 sequence (Q6GAU3 1-313): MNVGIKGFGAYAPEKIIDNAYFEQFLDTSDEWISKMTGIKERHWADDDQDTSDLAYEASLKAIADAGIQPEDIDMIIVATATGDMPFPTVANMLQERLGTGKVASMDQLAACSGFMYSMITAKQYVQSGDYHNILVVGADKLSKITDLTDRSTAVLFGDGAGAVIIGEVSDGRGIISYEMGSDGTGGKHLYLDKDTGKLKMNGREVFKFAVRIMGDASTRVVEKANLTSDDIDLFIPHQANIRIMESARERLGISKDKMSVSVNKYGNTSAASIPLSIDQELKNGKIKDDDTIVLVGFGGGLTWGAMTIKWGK
Description: in vitro targeting of purified protein (method not given). The data set is classed as binding. From the text: in vitro targeting of purified protein (method not told in the main text) on S. aureus FabH | The S. aureus FabH […] can also be targeted by 10-F05 in vitro

One may read the viability as a read-out of living cells in per cent, often relative to untreated cells.

Each structure is given as a SMILES string. Converted amounts (≈) assume the structure as drawn.

Molecule `O=C(CCl)c1cn(-c2ccc(F)cc2)nn1` [10-F05] came in with an MIC in data set [1] of 10 µM (≈ 2.4 µg/mL). For the same molecule, the viability at 48 h, 25 µM in the data set “in vitro” worked out at 89.9%. Besides, the “in-gel fluorescence, competition with 5-TMRIA labelling” value at Sf_FabH and on Sf_PdxY was “preincubation with 10-F05 resulted in a dose-dependent decrease in 5-TMRIA labeling of these proteins” in each case. Further, the “in vitro targeting of purified protein (method not given)” value on S. aureus FabH is “The S. aureus FabH [...] can also be targeted by 10-F05 in vitro”.
With `O=S(=O)(CC=C(Cl)Cl)N1CCSSCC1` [10-P19, 5-(3,3-dichloroprop-2-ene-1-sulfonyl)-1,2,5-dithiazepane], the viability at 48 h, 25 µM in the data set “in vitro” came to 127%.
The same measure, in the same setting: the value for `CN(C)C1=NC(N)=NC(=C(C#N)C(=O)CCl)N1` [10-P20, 2-[4-amino-6-(dimethylamino)-1,2-dihydro-1,3,5-triazin-2-ylidene]-4-chloro-3-oxobutanenitrile] was 104%; that for `COc1ccccc1CN1C(=O)C=CC1=O` [10-P21, 1-[(2-methoxyphenyl)methyl]-2,5-dihydro-1H-pyrrole-2,5-dione] was 105%; that for `CC(=O)c1c(C)[nH]c(C(=O)C(C)Cl)c1C` (stereo not drawn) [10-P22, 1-(4-acetyl-3,5-dimethyl-1H-pyrrol-2-yl)-2-chloropropan-1-one] was 103%.
